Data as given in US20220305115A1 (JANSSEN SCIENCES IRELAND UNLIMITED COMPANY, priority 2019, published 2022).

How the values were obtained:
Format in all cases: cell-based
human TLR8 = biological target: T1, human TLR8 (Homo sapiens, UniProt Q9NR97); experiment: HEK-Blue human TLR8 cell SEAP reporter assay (NF-κB activation); conditions: HEK-Blue human TLR8 cells, stimulation for 20 hours, Quanti Blue read at 640 nm
T1 construct: host or cells: HEK-Blue human TLR8 cells (HEK293-derived reporter line)
T1 sequence (Q9NR97 27-1041): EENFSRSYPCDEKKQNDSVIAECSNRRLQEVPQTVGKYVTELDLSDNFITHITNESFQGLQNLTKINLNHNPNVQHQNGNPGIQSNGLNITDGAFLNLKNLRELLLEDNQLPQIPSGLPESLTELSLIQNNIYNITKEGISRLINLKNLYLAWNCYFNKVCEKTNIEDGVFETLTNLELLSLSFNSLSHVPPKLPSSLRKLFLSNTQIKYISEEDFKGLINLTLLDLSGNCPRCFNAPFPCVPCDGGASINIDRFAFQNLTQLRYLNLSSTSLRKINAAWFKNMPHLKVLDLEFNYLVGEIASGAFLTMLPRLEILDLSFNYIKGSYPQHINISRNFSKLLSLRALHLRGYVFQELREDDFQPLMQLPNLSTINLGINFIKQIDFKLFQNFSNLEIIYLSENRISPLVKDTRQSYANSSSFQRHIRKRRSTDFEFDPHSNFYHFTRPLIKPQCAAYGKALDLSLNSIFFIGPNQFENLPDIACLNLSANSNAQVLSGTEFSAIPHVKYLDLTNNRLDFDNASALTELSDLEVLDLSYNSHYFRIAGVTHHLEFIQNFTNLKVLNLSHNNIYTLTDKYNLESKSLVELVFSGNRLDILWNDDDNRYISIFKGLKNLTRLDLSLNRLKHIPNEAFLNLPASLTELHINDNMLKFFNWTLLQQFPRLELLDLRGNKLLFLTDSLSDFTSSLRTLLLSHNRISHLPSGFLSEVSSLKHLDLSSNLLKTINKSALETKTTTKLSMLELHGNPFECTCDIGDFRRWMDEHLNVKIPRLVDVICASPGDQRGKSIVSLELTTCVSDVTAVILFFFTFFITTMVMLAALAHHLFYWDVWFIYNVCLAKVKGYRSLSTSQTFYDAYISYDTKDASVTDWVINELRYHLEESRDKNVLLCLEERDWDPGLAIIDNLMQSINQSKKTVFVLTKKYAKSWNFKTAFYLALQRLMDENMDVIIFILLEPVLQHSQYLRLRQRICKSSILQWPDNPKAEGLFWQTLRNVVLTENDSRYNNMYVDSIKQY
Source text: (§1) For TLR8 and TLR7 activity testing, HEK-Blue human TLR8 or TLR7 cells (Invivogen, San Diego, Calif., USA) are used, respectively. These cells are designed for studying the stimulation of human TLR8 or TLR7 by monitoring the activation of NF-κB. A SEAP (secreted embryonic alkaline phosphatase) reporter gene is placed under the control of the IFN-b minimal promoter fused to five NF-κB and AP-1-binding sites. Therefore the reporter expression is regulated by the NF-κB promoter upon stimulation of human TLR8 or TLR7 for 20 hours. The cell culture supernatant SEAP reporter activity was determined using Quanti Blue kit (Invivogen, San Diego, Ca, USA) at a wavelength of 640 nm, a detection medium that turns purple/blue in the presence of alkaline phosphatase. EC50 values were determined using Activity Base analysis (ID Business Solution, Limited).

human TLR7 = biological target: T2, human TLR7 (Homo sapiens, UniProt Q9NYK1); experiment: HEK-Blue human TLR7 cell SEAP reporter assay (NF-κB activation); conditions: HEK-Blue human TLR7 cells, stimulation for 20 hours, Quanti Blue read at 640 nm
T2 construct: host or cells: HEK-Blue human TLR7 cells (HEK293-derived reporter line)
T2 sequence (Q9NYK1 27-1049): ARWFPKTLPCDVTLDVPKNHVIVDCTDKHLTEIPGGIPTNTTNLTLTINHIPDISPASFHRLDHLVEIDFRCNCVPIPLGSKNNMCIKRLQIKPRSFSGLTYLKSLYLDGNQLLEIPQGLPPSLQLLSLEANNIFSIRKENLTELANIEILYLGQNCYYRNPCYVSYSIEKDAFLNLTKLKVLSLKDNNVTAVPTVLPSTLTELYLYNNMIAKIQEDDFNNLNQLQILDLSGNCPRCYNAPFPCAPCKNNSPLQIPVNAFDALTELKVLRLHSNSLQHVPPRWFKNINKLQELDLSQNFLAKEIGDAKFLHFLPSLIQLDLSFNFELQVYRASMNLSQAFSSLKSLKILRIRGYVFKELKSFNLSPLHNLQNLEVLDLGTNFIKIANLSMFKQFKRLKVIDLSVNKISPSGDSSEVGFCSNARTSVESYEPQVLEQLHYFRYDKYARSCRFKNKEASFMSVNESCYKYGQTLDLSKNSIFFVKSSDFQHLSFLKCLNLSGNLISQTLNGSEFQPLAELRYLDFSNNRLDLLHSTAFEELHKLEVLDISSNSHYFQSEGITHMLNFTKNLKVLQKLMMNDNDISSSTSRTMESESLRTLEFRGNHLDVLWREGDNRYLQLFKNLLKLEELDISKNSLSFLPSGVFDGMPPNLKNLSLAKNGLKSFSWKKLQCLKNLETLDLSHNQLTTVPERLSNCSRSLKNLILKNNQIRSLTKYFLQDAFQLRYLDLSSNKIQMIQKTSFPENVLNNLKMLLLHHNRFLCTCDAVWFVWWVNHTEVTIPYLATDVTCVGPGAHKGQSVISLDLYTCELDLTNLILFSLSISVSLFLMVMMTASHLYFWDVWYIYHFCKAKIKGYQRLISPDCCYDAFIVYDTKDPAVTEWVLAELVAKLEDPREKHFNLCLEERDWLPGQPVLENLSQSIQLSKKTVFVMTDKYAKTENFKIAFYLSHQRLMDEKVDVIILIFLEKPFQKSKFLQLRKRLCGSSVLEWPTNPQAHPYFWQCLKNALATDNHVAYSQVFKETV
Source text: as §1

TNFα = experiment: PBMC cytokine profiling assay, TNFα induction; conditions: Homo sapiens, 24 h, human PBMCs, 24 hours incubation
Experimental: (§2) Compounds were dissolved and stored in DMSO (Sigma-Aldrich, St. Louis, Mo.) at 10 mM concentration.
(§3) Cryopreserved human PBMCs isolated from healthy donors were purchased from StemCell Technologies (Vancouver, Canada). Cell culture medium used was RPMI with L-Glutamine (Mediatech, Manassas, Va.) supplemented with 10% fetal bovine serum (Hyclone, GE Healthcare, Logan, Utah) and Penicillin-Streptomycin (Mediatech). Human TNFα, IL12p40, and IFNα2a 384-well Assay capture plates, standards, buffers and processing reagents were obtained from MesoScale Discovery Technologies (MSD; Rockville, Md.).
(§4) Cryopreserved human PBMCs (1×10e8 cells/ml) were thawed at 37° C. and resuspended in 25 mL warm cell culture medium. The cells were pelleted at 200×g (Beckman Avanti J-E) for 5 min and resuspended in 20 mL of fresh culture media. Cells were counted using a Cellometer (Nexcelcom Bioscience), adjusted to 2×10e6 cells, and incubated for 2 hours in an incubator set at 37° C., 5% CO2 to recover from cryopreservation. […]
(§5) Using a Biomek FX 384 well pipetting station (Beckman), conditioned culture medium (CCM) from the assay plate was transferred to MSD capture plates customized for each cytokine. […] MSD Read Buffer diluted to 2× in deionized water and 35 μL/well was added via Biomek FX instrument. The plates were read immediately in a MSD6000 reader. […]

IL12p40 = experiment: PBMC cytokine profiling assay, IL12-p40 induction; conditions: Homo sapiens, 24 h, human PBMCs, 24 hours incubation
Experimental: as §2, §3, §4, §5

IFNα = experiment: PBMC cytokine profiling assay, IFNα induction; conditions: Homo sapiens, 24 h, human PBMCs, 24 hours incubation
Experimental: as §2, §3, §4, §5

Compound	EC50 (human TLR8) [nM]	EC50 (human TLR7) [nM]	AC50 (TNFα) [nM]	AC50 (IL12p40) [nM]	AC50 (IFNα) [nM]
CCCN(CCC)C(=O)C1=Cc2ccc(-c3cncnc3)cc2N=C(N)C1 [VTX-135, reference compound]	39	3610			
CCCN(CCC)C(=O)C1=Cc2ccc(-c3cccnc3)cc2N=C(N)C1 [VTX-133, reference compound]	77	1860			
CCCC[C@@H](Nc1nc(N)nc2cccnc12)[C@H](C)O [Compound 86]			2900	2400	37400
